Like-named read-outs stand apart in the source and are kept apart here.
Tests used:
[1] = Conversion of vanadium component into active catalyst (tubular reactor, premixing); details: premixing residence time 8 seconds, temperature varied to maximize conversion
Procedure: The vanadium component attains a maximum conversion to the active catalyst under certain premixing conditions determined by the concentrations of the vanadium and aluminum components and the residence time in the premixing zone and the reaction temperature. The experiment was conducted with identical concentrations of vanadium compound and the same molar ratio of aluminum to vanadium. The premixing experiment was run for the residence time of 8 seconds and the reaction temperature was varied to maximize the conversion of the vanadium component into the active catalyst.

[2] = Preparation of polyethylene (batch ethylene polymerization); details: 1 mmole catalyst, 5 mmoles ethyl aluminum sesquichloride, room temperature, 0.5 hrs
Procedure: In a 1.5 liter reaction vessel was introduced 800 ml of hexane. This was maintained at room temperature and ethylene was slowly bubbled in at the rate of 34 gms/hour. When the solution was saturated, 5 mmoles of Ethyl aluminum sesquichloride was added as a solution in hexane followed by a solution of 1 mmole of the transition metal catalyst compound dissolved in toluene. […] The polymerization was maintained for 0.5 hrs with constant monomer addition. At the end of the polymerization period, the polymerization was terminated by the addition of 5 ml of isopropanol and the polymer was recovered by filtration and dried to constant weight.

[3] = Ethylene/propylene copolymerization in tubular reactor (polymerization rate); details: for Effectiveness in polymerizing ethylene/propylene compared to VCl4 (in words): tubular reactor process; for Polymerization Rate (polymer made in the reactor): tubular reactor, 15° C. at the initial zone, adiabatic, premix 8 sec at 10° C. (Example 12) or -10° C. (all others)
Description: The polymerization results are shown in Table II and are expressed/as polymer made in the reactor in gms per hour.

[4] = tubular reactor
[5] = Ethylene/propylene copolymerization in continuous flow stirred tank reactor (catalyst productivity); details: CFSTR, residence time 11 minutes
Procedure: A series of copolymers based on ethylene and propylene monomers were prepared in a continuous flow stirred tank reactor using the vanadium
The polymerization results as set forth in Table 1 are expressed as polymer made in the reactor in gms per hour.

[6] = Copolymerization of norbornene type monomers with ethylene/propylene in CFSTR; details: 30° C.
Procedure: Polymerization experiments were conducted in a continuous flow stirred tank reactor process wherein norbornene type monomers such as norbornene and 5-ethylidene-2-norbornene (ENB) are copolymerized employing the invention catalysts. The polymerization was conducted under the following conditions:
Ethyl aluminum sesquichloride:
Tetraethoxysilane at .208 gms/hr

[7] = Catalyst lifetime in isothermal tubular reactor polymerization, first order decay; details: isothermal 40° C.
[8] = tubular reactor systems, pre-mixing and aging, in some cases; cited from earlier work
[9] = Condition A: no norbornene monomer
[10] = Condition B: Norbornene at 10.3 gms/hr
[11] = Condition C: Norbornene at 20.6 gms/hr
[12] = Condition D: ENB at 12.4 gms/hr + Tetraethoxysilane at .208 gms/hr

Molecule | Catalyst Conv % (percentage of vanadium converted to the active catalyst at maximum) [1] [%] | Wt of PE [2] [GMS] | Effectiveness in polymerizing ethylene/propylene compared to VCl4 (in words) [3] | Polymerization Rate (polymer made in the reactor) [3] [gms per hour] | Half-Life at 40° C. [4] [s] | Catalyst Productivity at Specified Temperature (polymer made in the reactor) ([5]; 30° C.) [gms per hour] | Catalyst Productivity at Specified Temperature (polymer made in the reactor) ([5]; 45° C.) [gms per hour] | Catalyst Productivity at Specified Temperature (polymer made in the reactor) ([5]; 60° C.) [gms per hour] | Polymerization rate [6, 9] [gms/hr] | Polymerization rate [6, 10] [gms/hr] | Polymerization rate [6, 11] [gms/hr] | Polymerization rate [6, 12] [gms/hr] | Half-Life at 40° C. [7] [s] | Deactivation of catalyst formed, based on the moles of the initial vanadium compound added [8]
CC(=O)C=C(C)[O][V]([Cl])[O]C(C)=CC(C)=O [Catalyst Code 2, Bis (2,4-pentanedionate) mono chloro vanadium (+3)] | 72 | 14.3 | significantly more effective than VCL4 in polymerizing ethylene/propylene monomers | 878 | 11.6 | 92 | 64 | 51 | 169 | 164 | 159 | 152 |  | 
CC(=O)C=C(C)[O-].CCCCCC(=O)[O-].[Cl-].[V+3] [Catalyst Code 3, Hexanoate (2,4-Pentanedionate) mono chloro vanadium (+3)] | 75 | 15.0 | significantly more effective than VCL4 in polymerizing ethylene/propylene monomers | 891 |  | 87 | 64 | 51 | 165 | 178 | 164 | 165 | 13.8 | 
Bis hexanoate mono chloro titanium [Catalyst Code 5] |  | 13.5 |  |  |  |  |  |  |  |  |  |  |  | 
Bis hexanoate mono chloro vanadium (+3) [Catalyst Code 1] | 67 | 13.9 | significantly more effective than VCL4 in polymerizing ethylene/propylene monomers | 832 |  | 95 | 68 | 58 | 171 | 171 | 168 | 160 | 19.8 | 
Hexanoate Salicaldehyde mono chloro vanadium (+3) [Catalyst Code 4] |  | 15.0 |  |  |  | 90 | 73 | 56 |  |  |  |  | 10.0 | 
Tetra chloro vanadium (+4) [Catalyst Code 0, reference compound] |  |  |  |  |  |  |  |  |  |  |  |  | 2.5 | up to 55 mole percent
